# Experimental data as given in ChEMBL document CHEMBL4007474, “Soluble epoxide hydrolase inhibitors of indolinone alkaloids and phenolic derivatives from Cimicifuga dahurica (Turcz.) Maxim” (Bioorg Med Chem Lett, 2017).
# Calls of active or inactive are those of the source. No cut-off for these calls is given here.
# Experiments:
# [1] = target: T1, Bifunctional epoxide hydrolase 2 (Homo sapiens) (UniProt P34913); experiment: Inhibition of sEH (unknown origin) at 100 uM using PHOME as substrate after 40 mins by fluorescence photometric method relative to control
# T1 sequence (whole entry): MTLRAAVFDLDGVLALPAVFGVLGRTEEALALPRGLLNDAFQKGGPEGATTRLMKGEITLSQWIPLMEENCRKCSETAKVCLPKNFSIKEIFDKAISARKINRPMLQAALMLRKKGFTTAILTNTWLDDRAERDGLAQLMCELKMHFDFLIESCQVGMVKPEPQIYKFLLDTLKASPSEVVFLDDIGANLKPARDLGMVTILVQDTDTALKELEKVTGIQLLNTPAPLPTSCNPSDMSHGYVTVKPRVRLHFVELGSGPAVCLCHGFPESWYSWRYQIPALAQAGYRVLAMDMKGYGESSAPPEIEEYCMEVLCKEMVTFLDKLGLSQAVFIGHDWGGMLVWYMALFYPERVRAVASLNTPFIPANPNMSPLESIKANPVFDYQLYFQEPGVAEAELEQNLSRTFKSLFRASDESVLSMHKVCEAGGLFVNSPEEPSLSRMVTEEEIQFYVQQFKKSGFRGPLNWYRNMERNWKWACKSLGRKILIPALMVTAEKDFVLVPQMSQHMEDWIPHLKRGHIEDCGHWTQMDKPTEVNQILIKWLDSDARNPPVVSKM
# [2] = target: T1, Bifunctional epoxide hydrolase 2 (Homo sapiens); experiment: Mixed type inhibition of sEH (unknown origin) at 0.78 to 6.25 uM using PHOME as substrate measured for 30 mins by Lineweaver-burk plot method
# [3] = target: T1, Bifunctional epoxide hydrolase 2 (Homo sapiens); experiment: (§1) Inhibition of sEH (unknown origin) using PHOME as substrate after 40 mins by fluorescence photometric method
# [4] = target: T2, Bifunctional epoxide hydrolase 2 (Homo sapiens, UniProt P34913); experiment: as §1
# T2 sequence (P34913 whole entry): T1 sequence (whole entry)
# [5] = target: T1, Bifunctional epoxide hydrolase 2 (Homo sapiens); experiment: Competitive inhibition of sEH (unknown origin) at 0.78 to 6.25 uM using PHOME as substrate measured for 30 mins by Lineweaver-burk plot method
# [6] = target: T1, Bifunctional epoxide hydrolase 2 (Homo sapiens); conditions: 0.78 to 6.25 uM
Compound,inhibition [1],inhibition [2],inhibition [3],IC50 [4],inhibition [5],inhibition [6]
O=C(/C=C/c1ccc(O)c(O)c1)O[C@@H]1C[C@](O)(C(=O)O)C[C@@H](OC(=O)/C=C/c2ccc(O)c(O)c2)[C@H]1O,81.3%,Active,Dose-dependent effect,2.8 µM,,
CC(C)=C/C=C1\C(=O)N(C)c2ccccc21,77%,,Dose-dependent effect,1.3 µM,Active,
CC(C)=C/C=C1/C(=O)N(C)c2ccccc21,80.2%,,Dose-dependent effect,0.8 µM,Active,
COC(=O)/C=C/c1ccc(O)c(OC)c1,99.2%,Active,Dose-dependent effect,1.8 µM,,
CC(C)=C/C=C1/C(=O)Nc2ccccc21,95.1%,,Dose-dependent effect,1 µM,Active,

# Other lines, results leading:
inhibition [1],inhibition [2],inhibition [3],IC50 [4],inhibition [5],inhibition [6],Compound
98.3%,Active,Dose-dependent effect,1.6 µM,,,COc1ccc(/C=C/C(=O)OCC(=O)c2ccc(O)c(O)c2)cc1O
104%,,Dose-dependent effect,1.1 µM,,Active,COc1ccc(/C=C/C(=O)OCC(=O)Cc2ccc(O)c(O)c2)cc1O [CIMIRACEMATE A]
